Results reported in PubChem BioAssay AID248 (DTP/NCI, 2004).
“And” between values parts separate entries of the source, which are not always exact repeats. Equal values may be shown once. Inconclusive results and toxic doses are left out. No stated cut-off is given here; in the data, active means T/C of 150% or more; inactive means T/C below 125%.

Test system: L1210 leukemia ip in BDF1 mice, survival T/C
Test: NCI In Vivo Anticancer Drug Screen. Data for tumor model L1210 Leukemia (intraperitoneal) in B6D2F1 (BDF1) mice
Conditions: endpoint: mean survival time, higher = longer survival
In short: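 In this screen, tumor-bearing mice given compound are compared to those given vehicle, and their survival values are reported as a treated-to-control quotient.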

[1] = dose: 100.0 mg/kg/injection, schedule: Q04DX003 (ip), vehicle: saline
[2] = dose: 200.0 mg/kg/injection, schedule: Q04DX003 (ip), vehicle: saline
[3] = dose: 400.0 mg/kg/injection, schedule: Q04DX003 (ip), vehicle: saline
[4] = dose: 100.0 mg/kg/injection, schedule: Q04DX003 (ip), vehicle: Klucel (hydroxypropylcellulose) (HPC)
[5] = dose: 200.0 mg/kg/injection, schedule: Q04DX003 (ip), vehicle: Klucel (hydroxypropylcellulose) (HPC)
[6] = dose: 400.0 mg/kg/injection, schedule: Q04DX003 (ip), vehicle: Klucel (hydroxypropylcellulose) (HPC)
[7] = dose: 100.0 mg/kg/injection, schedule: Q01DX009 (ip), vehicle: Klucel (hydroxypropylcellulose) (HPC)
[8] = dose: 200.0 mg/kg/injection, schedule: Q01DX009 (ip), vehicle: Klucel (hydroxypropylcellulose) (HPC)

Measured: T/C

CC(=O)NC(CO)C(O)C(O)C(O)CO (configuration not stated)
inactive: dose: 100.0 mg/kg/injection, schedule: Q04DX002 (ip), vehicle: saline 101 % of control and 89 % of control | dose: 200.0 mg/kg/injection, schedule: Q04DX002 (ip), vehicle: saline 93 % of control and 104 % of control | dose: 400.0 mg/kg/injection, schedule: Q04DX002 (ip), vehicle: saline 93 % of control | dose: 800.0 mg/kg/injection, schedule: Q04DX002 (ip), vehicle: saline 93 % of control

NC(=O)C[n+]1cccc(C(=O)Nc2ccccc2)c1
inactive: [1] 97 % of control | [2] 101 % of control | [3] 87 % of control

Clc1ccc2c(c1)C(N1CCOCC1)c1cc(Cl)cc(Cl)c1-2 (configuration not stated)
inactive: dose: 100.0 mg/kg/injection, schedule: Q01DX001 (ip), vehicle: Klucel (hydroxypropylcellulose) (HPC) 102 % of control | [4] 98 % of control | dose: 200.0 mg/kg/injection, schedule: Q01DX001 (ip), vehicle: Klucel (hydroxypropylcellulose) (HPC) 92 % of control | [5] 96 % of control | dose: 400.0 mg/kg/injection, schedule: Q01DX001 (ip), vehicle: Klucel (hydroxypropylcellulose) (HPC) 96 % of control | [6] 94 % of control

Cc1nc2c(O)ccc(O)c2nc1C
inactive: dose: 3.12 mg/kg/injection, schedule: Q04DX003 (ip), vehicle: saline with Tween-80 100 % of control | dose: 6.25 mg/kg/injection, schedule: Q04DX003 (ip), vehicle: saline with Tween-80 96 % of control | dose: 12.5 mg/kg/injection, schedule: Q01DX009 (ip), vehicle: saline with Tween-80 94 % of control | dose: 12.5 mg/kg/injection, schedule: Q04DX003 (ip), vehicle: saline with Tween-80 100 % of control | dose: 25.0 mg/kg/injection, schedule: Q01DX009 (ip), vehicle: saline with Tween-80 96 % of control | dose: 50.0 mg/kg/injection, schedule: Q01DX009 (ip), vehicle: saline with Tween-80 94 % of control

CCN(CC)c1cccc(OC(=O)NC)c1
inactive: dose: 0.75 mg/kg/injection, schedule: Q01DX009 (ip), vehicle: saline with Tween-80 91 % of control | dose: 1.5 mg/kg/injection, schedule: Q01DX009 (ip), vehicle: saline with Tween-80 94 % of control | dose: 3.0 mg/kg/injection, schedule: Q01DX009 (ip), vehicle: saline with Tween-80 94 % of control

O=C(Nc1ccccc1)OCC(F)(F)F
inactive: dose: 100.0 mg/kg/injection, schedule: Q04DX002 (ip), vehicle: gum acacia 105 % of control | dose: 200.0 mg/kg/injection, schedule: Q04DX002 (ip), vehicle: gum acacia 108 % of control | dose: 400.0 mg/kg/injection, schedule: Q04DX002 (ip), vehicle: gum acacia 101 % of control

Cc1cc(=O)[nH]c(N/N=C/c2ccccc2)n1
inactive: dose: 100.0 mg/kg/injection, schedule: Q01DX009 (ip), vehicle: gum acacia 88 % of control | dose: 100.0 mg/kg/injection, schedule: Q04DX003 (ip), vehicle: gum acacia 93 % of control | dose: 200.0 mg/kg/injection, schedule: Q04DX003 (ip), vehicle: gum acacia 97 % of control | dose: 400.0 mg/kg/injection, schedule: Q01DX009 (ip), vehicle: gum acacia 91 % of control | dose: 400.0 mg/kg/injection, schedule: Q04DX003 (ip), vehicle: gum acacia 93 % of control

O=c1[nH]cnc2c1ncn2C1CCCC1
inactive: dose: 18.12 mg/kg/injection, schedule: Q01DX Z (ip), vehicle: carboxymethylcellulose (CMC) 98 % of control | dose: 36.25 mg/kg/injection, schedule: Q01DX Z (ip), vehicle: carboxymethylcellulose (CMC) 98 % of control | dose: 36.25 mg/kg/injection, schedule: Q01DX Z (oral), vehicle: carboxymethylcellulose (CMC) 110 % of control | dose: 72.5 mg/kg/injection, schedule: Q01DX Z (ip), vehicle: carboxymethylcellulose (CMC) 93 % of control | dose: 72.5 mg/kg/injection, schedule: Q01DX Z (oral), vehicle: carboxymethylcellulose (CMC) 98 % of control | dose: 145.0 mg/kg/injection, schedule: Q01DX Z (ip), vehicle: carboxymethylcellulose (CMC) 98 % of control | dose: 145.0 mg/kg/injection, schedule: Q01DX Z (oral), vehicle: carboxymethylcellulose (CMC) 102 % of control | dose: 290.0 mg/kg/injection, schedule: Q01DX Z (oral), vehicle: carboxymethylcellulose (CMC) 110 % of control

CC12CC(O)C3c4ccc(O)cc4CCC3C1CCC2=O (configuration not stated)
inactive: dose: 50.0 mg/kg/injection, schedule: Q01DX001 (ip), vehicle: carboxymethylcellulose (CMC) 106 % of control | dose: 100.0 mg/kg/injection, schedule: Q01DX001 (ip), vehicle: carboxymethylcellulose (CMC) 98 % of control | dose: 200.0 mg/kg/injection, schedule: Q01DX001 (ip), vehicle: carboxymethylcellulose (CMC) 104 % of control | dose: 400.0 mg/kg/injection, schedule: Q01DX001 (ip), vehicle: carboxymethylcellulose (CMC) 104 % of control

Cc1ccc(C)c(Nc2nc(Cl)nc3ncn(C)c23)c1
inactive: dose: 100.0 mg/kg/injection, schedule: Q01DX001 (ip), vehicle: other 103 % of control | dose: 100.0 mg/kg/injection, schedule: Q04DX003 (ip), vehicle: other 102 % of control | dose: 200.0 mg/kg/injection, schedule: Q01DX001 (ip), vehicle: other 90 % of control | dose: 200.0 mg/kg/injection, schedule: Q04DX003 (ip), vehicle: other 117 % of control | dose: 400.0 mg/kg/injection, schedule: Q01DX001 (ip), vehicle: other 94 % of control | dose: 400.0 mg/kg/injection, schedule: Q04DX003 (ip), vehicle: other 110 % of control

Cc1cc2ccccc2[n+](C)c1-c1ccccc1Br
inactive: dose: 5.0 mg/kg/injection, schedule: Q01DX001 (ip), vehicle: saline 108 % of control | dose: 10.0 mg/kg/injection, schedule: Q01DX001 (ip), vehicle: saline 95 % of control

CC(C)C1(C(=O)O)SCCCS1
inactive: dose: 50.0 mg/kg/injection, schedule: Q04DX003 (ip), vehicle: saline 100 % of control | [1] 110 % of control | [2] 102 % of control | [3] 98 % of control

CCCCOC(=O)C(O)C(C)(Cl)c1ccccc1 (configuration not stated)
inactive: dose: 100.0 mg/kg/injection, schedule: Q04DX002 (ip), vehicle: Klucel (hydroxypropylcellulose) (HPC) 106 % of control | dose: 200.0 mg/kg/injection, schedule: Q04DX002 (ip), vehicle: Klucel (hydroxypropylcellulose) (HPC) 103 % of control | dose: 400.0 mg/kg/injection, schedule: Q04DX002 (ip), vehicle: Klucel (hydroxypropylcellulose) (HPC) 106 % of control

O=C(O)C1Cc2c([nH]c3ccccc23)C(c2ccccc2)N1 (configuration not stated)
inactive: dose: 100.0 mg/kg/injection, schedule: Q01DX009 (ip), vehicle: saline with Tween-80 96 % of control | dose: 100.0 mg/kg/injection, schedule: Q04DX003 (ip), vehicle: saline with Tween-80 104 % of control | dose: 200.0 mg/kg/injection, schedule: Q01DX009 (ip), vehicle: saline with Tween-80 94 % of control | dose: 200.0 mg/kg/injection, schedule: Q04DX003 (ip), vehicle: saline with Tween-80 102 % of control | dose: 400.0 mg/kg/injection, schedule: Q01DX009 (ip), vehicle: saline with Tween-80 97 % of control | dose: 400.0 mg/kg/injection, schedule: Q04DX003 (ip), vehicle: saline with Tween-80 96 % of control

COc1ccc(OC)c(NC(=O)NC(C)(C)C)c1
inactive: [7] 101 % of control | [8] 103 % of control | dose: 400.0 mg/kg/injection, schedule: Q01DX009 (ip), vehicle: Klucel (hydroxypropylcellulose) (HPC) 88 % of control

O=C1OC(=O)C2C3OC(C(Cl)C3Cl)C12 (configuration not stated)
inactive: [7] 106 % of control | [8] 106 % of control

C[N+](C)(C)CCOc1ccccc1Cc1ccccc1
inactive: dose: 1.56 mg/kg/injection, schedule: Q01DX003 (ip), vehicle: saline 96 % of control | dose: 3.12 mg/kg/injection, schedule: Q01DX003 (ip), vehicle: saline 100 % of control | dose: 3.12 mg/kg/injection, schedule: Q01DX009 (ip), vehicle: saline 96 % of control and 100 % of control | dose: 6.25 mg/kg/injection, schedule: Q01DX003 (ip), vehicle: saline 96 % of control | dose: 6.25 mg/kg/injection, schedule: Q01DX009 (ip), vehicle: saline 106 % of control | dose: 12.5 mg/kg/injection, schedule: Q01DX009 (ip), vehicle: saline 105 % of control and 89 % of control | dose: 12.5 mg/kg/injection, schedule: Q04DX003 (ip), vehicle: saline 111 % of control

O=[N+]([O-])c1ccc(/C=C/c2nccs2)o1
inactive: [4] 97 % of control | [5] 106 % of control | [6] 108 % of control

Fc1ccc2[nH]c3c(c2c1)C[P+](Cc1cccc2ccccc12)(c1ccccc1)CC3 (configuration not stated)
inactive: [1] 98 % of control | [2] 88 % of control

CCC1C(=O)N(c2ccc(S(=O)(=O)O)cc2)N=C1C (configuration not stated)
inactive: [4] 95 % of control | [5] 95 % of control
